Measurements from patent publication US10806142B2, “2-amino-5-ketoxime-pyrimidine derivatives and their use for controlling undesired plant growth” (Bayer CropScience Aktiengesellschaft, priority 2015, dated 2020).

Legend:
[1] = logp (HCOOH), physicochemical characterization; settings: HCOOH (formic acid)
Amaranthus retroflexus [2] = test: Pre-emergence herbicidal effect; format: in vivo
Description: (§1) 1. Pre-Emergence Herbicidal Effect and Crop Plant Compatibility Seeds of monocotyledonous and dicotyledonous weed plants and crop plants are laid out in wood-fiber pots in sandy loam and covered with soil. The compounds of the invention, formulated in the form of wettable powders (WP) or as emulsion concentrates (EC), are then applied to the surface of the covering soil as aqueous suspension or emulsion at a water application rate equating to 600 to 800 L/ha with addition of 0.2% wetting agent. After the treatment, the pots are placed in a greenhouse and kept under good growth conditions for the trial plants. The damage to the trial plants is scored visually after a trial duration of 3 weeks by comparison with untreated controls (herbicidal activity in percent (%): 100% efficacy=the plants have died, 0% efficacy=like control plants). [table]

Echinochloa crus-galli = test: Pre-emergence herbicidal effect; format: in vivo
Description: as §1

Matricaria inodora [3] = test: Pre-emergence herbicidal effect; format: in vivo
Description: as §1

Polygpnum convolvulus [4] = test: Pre-emergence herbicidal effect; format: in vivo
Description: as §1

Setaria viridis [5] = test: Pre-emergence herbicidal effect; format: in vivo
Description: as §1

Stellaria media [6] = test: Pre-emergence herbicidal effect; format: in vivo
Description: as §1

Veronica persica = test: Pre-emergence herbicidal effect; format: in vivo
Description: as §1

Viola tricolor [7] = test: Pre-emergence herbicidal effect; format: in vivo
Description: as §1

Abutilon theophrasti = test: Post-emergence herbicidal effect; format: in vivo; settings: visual score after about 3 weeks
Protocol: (§2) [table] 2. Post-Emergence Herbicidal Effect and Crop Plant Compatibility Seeds of monocotyledonous and dicotyledonous weed and crop plants are laid out in sandy loam in wood-fiber pots, covered with soil and cultivated in a greenhouse under good growth conditions. 2 to 3 weeks after sowing, the test plants are treated at the one-leaf stage. The compounds of the invention, formulated in the form of wettable powders (WP) or as emulsion concentrates (EC), are then sprayed onto the green parts of the plants as aqueous suspension or emulsion at a water application rate equating to 600 to 800 L/ha with addition of 0.2% wetting agent. After the trial plants have been left to stand in a greenhouse under optimal growth conditions for about 3 weeks, the efficacy of the formulations is scored visually in comparison to untreated controls (herbicidal action in percent (%): 100% efficacy=the plants have died, 0% efficacy=like control plants).

Cyperus esculentus [8] = test: Post-emergence herbicidal effect; format: in vivo; settings: dosage 320 g a.i./ha, visual score after about 3 weeks
Protocol: as §2

Ipomoea purpurea = test: Post-emergence herbicidal effect; format: in vivo
Protocol: as §2

Matricaria inodora [9] = test: Post-emergence herbicidal effect; format: in vivo; settings: visual score after about 3 weeks
Protocol: as §2

Polygpnum convolvulus [10] = test: Post-emergence herbicidal effect; format: in vivo
Protocol: as §2

Setaria viridis [11] = test: Post-emergence herbicidal effect; format: in vivo
Protocol: as §2

Stellaria media [12] = test: Post-emergence herbicidal effect; format: in vivo; settings: visual score after about 3 weeks
Protocol: as §2

Viola tricolor [13] = test: Post-emergence herbicidal effect; format: in vivo
Protocol: as §2

Alopecurus myosuroides = test: Pre-emergence herbicidal effect; format: in vivo; settings: dosage 320 g a.i./ha
Description: as §1

Avena fatua = test: Pre-emergence herbicidal effect; format: in vivo; settings: dosage 320 g a.i./ha
Description: as §1

Cyperus esculentus [14] = test: Pre-emergence herbicidal effect; format: in vivo; settings: dosage 320 g a.i./ha
Description: as §1

Amaranthus retroflexus [15] = test: Post-emergence herbicidal effect; format: in vivo; settings: visual score after about 3 weeks
Protocol: as §2

[16] = dosage 320 g a.i./ha, visual score after about 3 weeks
[17] = dosage 80 g a.i./ha, visual score after about 3 weeks
[18] = dosage cell empty, first line of the compound
[19] = dosage cell empty, second line of the compound

SMILES	chromatographic logP [1]	Herbicidal activity against AMARE (Amaranthus retroflexus [2]; dosage 80 g a.i./ha) [%]	Herbicidal activity against AMARE (Amaranthus retroflexus [2]; dosage 320 g a.i./ha) [%]	Herbicidal activity against ECHCG (Echinochloa crus-galli; dosage 320 g a.i./ha) [%]	Herbicidal activity against MATIN (Matricaria inodora [3]; dosage 80 g a.i./ha) [%]	Herbicidal activity against MATIN (Matricaria inodora [3]; dosage 320 g a.i./ha) [%]	Herbicidal activity against POLCO (Polygpnum convolvulus [4]; dosage 320 g a.i./ha) [%]	Herbicidal activity against SETVI (Setaria viridis [5]; dosage 320 g a.i./ha) [%]	Herbicidal activity against STEME (Stellaria media [6]; dosage 80 g a.i./ha) [%]	Herbicidal activity against STEME (Stellaria media [6]; dosage 320 g a.i./ha) [%]	Herbicidal activity against VERPE (Veronica persica; dosage 80 g a.i./ha) [%]	Herbicidal activity against VERPE (Veronica persica; dosage 320 g a.i./ha) [%]	Herbicidal activity against VIOTR (Viola tricolor [7]; dosage 80 g a.i./ha) [%]	Herbicidal activity against VIOTR (Viola tricolor [7]; dosage 320 g a.i./ha) [%]	Herbicidal activity against POLCO (Polygpnum convolvulus [10]; [17]) [%]	Herbicidal activity against POLCO (Polygpnum convolvulus [10]; [16]) [%]	Herbicidal activity against STEME (Stellaria media [12]; dosage 80 g a.i./ha) [%]	Herbicidal activity against STEME (Stellaria media [12]; dosage 320 g a.i./ha) [%]	Herbicidal activity against VIOTR (Viola tricolor [13]; [17]) [%]	Herbicidal activity against VIOTR (Viola tricolor [13]; [16]) [%]	further results
CC/C(=N/O)c1cnc(N[C@H]2c3cc(C)ccc3C[C@@H]2C)nc1CC [Compound 1.40b, N-[(1R,2S)-2,6-dimethyl-2,3-dihydro-1H-inden-1-yl]-4-ethyl-5-[(1Z)-N-hydroxypropanimidoyl]pyrimidine-2-amine]	3.86	100	100	100	90	100	100	100	90	100	100	100	100	100	80	80	70	80	90	90	Herbicidal activity against ALOMY (Alopecurus myosuroides): 80%; Herbicidal activity against AVEFA (Avena fatua): 90%; Herbicidal activity against CYPES (Cyperus esculentus [14]): 100%; Herbicidal activity against ECHCG (Echinochloa crus-galli; dosage 80 g a.i./ha): 90%; Herbicidal activity against POLCO (Polygpnum convolvulus [4]; dosage 80 g a.i./ha): 100%; Herbicidal activity against SETVI (Setaria viridis [5]; dosage 80 g a.i./ha): 100%; Herbicidal activity against AMARE (Amaranthus retroflexus [15]; dosage 80 g a.i./ha): 90%; Herbicidal activity against AMARE (Amaranthus retroflexus [15]; dosage 320 g a.i./ha): 100%; Herbicidal activity against PHBPU (Ipomoea purpurea; [17]): 80%; Herbicidal activity against PHBPU (Ipomoea purpurea; [16]): 90%; Herbicidal activity against SETVI (Setaria viridis [11]; [16]): 90%
CC/C(=N/OCc1ccc(Cl)cc1)c1cnc(N[C@H]2c3cc(C)ccc3C[C@@H]2C)nc1CC [Compound 1.115b, 5-{(1Z)-N-[(4-Chlorobenzyl)oxy]propanimidoyl}-N-[(1R,2S)-2,6-dimethyl-2,3-dihydro-1H-inden-1-yl]-4-ethylpyrimidine-2-amine]	–	–	–	–	–	90	–	–	–	100	100	100	90	100	–	–	–	–	–	–	Herbicidal activity against PHBPU (Ipomoea purpurea; [18]): 90%; Herbicidal activity against POLCO (Polygpnum convolvulus [10]; [18]): 80%; Herbicidal activity against SETVI (Setaria viridis [11]; [18]): 100%; Herbicidal activity against SETVI (Setaria viridis [11]; [19]): 80%; Herbicidal activity against VIOTR (Viola tricolor [13]; [18]): 90%; Herbicidal activity against VIOTR (Viola tricolor [13]; [19]): 80%
CCO/N=C(\C)c1cnc(N[C@H]2c3cc(C)ccc3C[C@@H]2C)nc1 [Compound 1.103a, N-[(1R,2S)-2,6-Dimethyl-2,3-dihydro-1H-inden-1-yl]-5-[(1E)-N-ethoxyethanimidoyl]pyrimidine-2-amine]	–	100	100	100	90	100	100	100	100	100	–	–	100	100	90	100	90	90	90	90	Herbicidal activity against ABUTH (Abutilon theophrasti; dosage 320 g a.i./ha): 90%; Herbicidal activity against PHBPU (Ipomoea purpurea; [17]): 80%; Herbicidal activity against PHBPU (Ipomoea purpurea; [16]): 90%; Herbicidal activity against MATIN (Matricaria inodora [9]; dosage 320 g a.i./ha): 80%
C/C(=N\Oc1ccc(F)cc1)c1cnc(N[C@H]2c3cc(C)ccc3C[C@@H]2C)nc1 [Compound 1.101a, N-[(1R,2S)-2,6-Dimethyl-2,3-dihydro-1H-inden-1-yl]-5-[(1E)-N-(4-fluorophenoxy)ethanimidoyl]pyrimidine-2-amine]	5.34	90	100	100	80	100	–	–	100	100	100	100	–	100	100	100	90	90	90	90	Herbicidal activity against CYPES (Cyperus esculentus [14]): 90%; Herbicidal activity against POLCO (Polygpnum convolvulus [4]; dosage 80 g a.i./ha): 90%; Herbicidal activity against ABUTH (Abutilon theophrasti; dosage 80 g a.i./ha): 90%; Herbicidal activity against ABUTH (Abutilon theophrasti; dosage 320 g a.i./ha): 100%; Herbicidal activity against SETVI (Setaria viridis [11]; [16]): 80%

The next lines start with results.

chromatographic logP [1]	SMILES	Herbicidal activity against AMARE (Amaranthus retroflexus [2]; dosage 80 g a.i./ha) [%]	Herbicidal activity against AMARE (Amaranthus retroflexus [2]; dosage 320 g a.i./ha) [%]	Herbicidal activity against ECHCG (Echinochloa crus-galli; dosage 320 g a.i./ha) [%]	Herbicidal activity against MATIN (Matricaria inodora [3]; dosage 80 g a.i./ha) [%]	Herbicidal activity against MATIN (Matricaria inodora [3]; dosage 320 g a.i./ha) [%]	Herbicidal activity against POLCO (Polygpnum convolvulus [4]; dosage 320 g a.i./ha) [%]	Herbicidal activity against SETVI (Setaria viridis [5]; dosage 320 g a.i./ha) [%]	Herbicidal activity against STEME (Stellaria media [6]; dosage 80 g a.i./ha) [%]	Herbicidal activity against STEME (Stellaria media [6]; dosage 320 g a.i./ha) [%]	Herbicidal activity against VERPE (Veronica persica; dosage 80 g a.i./ha) [%]	Herbicidal activity against VERPE (Veronica persica; dosage 320 g a.i./ha) [%]	Herbicidal activity against VIOTR (Viola tricolor [7]; dosage 80 g a.i./ha) [%]	Herbicidal activity against VIOTR (Viola tricolor [7]; dosage 320 g a.i./ha) [%]	Herbicidal activity against POLCO (Polygpnum convolvulus [10]; [17]) [%]	Herbicidal activity against POLCO (Polygpnum convolvulus [10]; [16]) [%]	Herbicidal activity against STEME (Stellaria media [12]; dosage 80 g a.i./ha) [%]	Herbicidal activity against STEME (Stellaria media [12]; dosage 320 g a.i./ha) [%]	Herbicidal activity against VIOTR (Viola tricolor [13]; [17]) [%]	Herbicidal activity against VIOTR (Viola tricolor [13]; [16]) [%]	further results
4.92	CCO/N=C(/C)c1cnc(N[C@H]2c3cc(C)ccc3C[C@@H]2C)nc1 [Compound 1.103b, N-[(1R,2S)-2,6-dimethyl-2,3-dihydro-1H-inden-1-yl]-5-[(1Z)-N-ethoxyethanimidoyl]pyrimidine-2-amine]	80	100	100	100	100	100	90	100	100	100	100	100	100	90	100	80	90	90	100	Herbicidal activity against POLCO (Polygpnum convolvulus [4]; dosage 80 g a.i./ha): 100%; Herbicidal activity against ABUTH (Abutilon theophrasti; dosage 80 g a.i./ha): 90%; Herbicidal activity against ABUTH (Abutilon theophrasti; dosage 320 g a.i./ha): 100%; Herbicidal activity against CYPES (Cyperus esculentus [8]): 80%; Herbicidal activity against PHBPU (Ipomoea purpurea; [16]): 90%; Herbicidal activity against MATIN (Matricaria inodora [9]; dosage 80 g a.i./ha): 80%; Herbicidal activity against MATIN (Matricaria inodora [9]; dosage 320 g a.i./ha): 100%; Herbicidal activity against SETVI (Setaria viridis [11]; [16]): 80%
4.1	CCCC/C(=N/O)c1cnc(N[C@H]2c3cc(C)ccc3C[C@@H]2C)nc1 [Compound 1.85b, N-[(1R,2S)-2,6-dimethyl-2,3-dihydro-1H-inden-1-yl]-5-[(1Z)-N-hydroxypentanimidoyl]pyrimidine-2-amine]	–	80	–	–	80	90	–	100	100	100	100	100	100	–	–	–	–	–	–	–
3.86	CCCC/C(=N\O)c1cnc(N[C@H]2c3cc(C)ccc3C[C@@H]2C)nc1 [Compound 1.85a, N-[(1R,2S)-2,6-Dimethyl-2,3-dihydro-1H-inden-1-yl]-5-[(1E)-N-hydroxypentanimidoyl]pyrimidine-2-amine]	–	80	100	–	100	–	100	100	100	100	100	100	100	80	80	80	90	80	90	Herbicidal activity against ABUTH (Abutilon theophrasti; dosage 80 g a.i./ha): 80%; Herbicidal activity against ABUTH (Abutilon theophrasti; dosage 320 g a.i./ha): 100%
